Data as given in patent publication US6057441A, “Substituted tetracyclic tetrahydrofuran derivatives” (Janssen Pharmaceutica, N.V., priority 1996, dated 2000).
Where a name gives a salt, the structure may show the parent alone.

Key:
5-HT2C receptor = target: T1, 5-HT2C receptor (Sus scrofa, UniProt K7GSR7); test: In vitro radioligand binding affinity for 5-HT2C receptor (3H-mesulergine, choroid plexus); conditions: test concentration of 10^-7 M, choroid plexus of the pig
T1 construct: the tissue used is the choroid plexus of the pig; from tissue; host or cells: pig choroid plexus
T1 sequence (K7GSR7 1-457): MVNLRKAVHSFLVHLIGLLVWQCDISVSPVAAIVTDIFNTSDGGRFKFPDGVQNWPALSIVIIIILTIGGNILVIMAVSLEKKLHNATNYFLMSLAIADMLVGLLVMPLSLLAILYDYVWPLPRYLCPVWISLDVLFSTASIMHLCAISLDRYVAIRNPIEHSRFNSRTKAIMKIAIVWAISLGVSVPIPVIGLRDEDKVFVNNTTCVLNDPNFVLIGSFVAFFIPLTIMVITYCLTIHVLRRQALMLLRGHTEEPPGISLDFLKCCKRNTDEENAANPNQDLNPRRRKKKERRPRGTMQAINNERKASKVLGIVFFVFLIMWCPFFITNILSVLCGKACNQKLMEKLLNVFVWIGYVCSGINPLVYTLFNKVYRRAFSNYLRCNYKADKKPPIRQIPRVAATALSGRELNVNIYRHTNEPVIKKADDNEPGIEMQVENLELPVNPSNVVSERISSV
Experimental: (§1) The interaction of the compounds of formula (I) with 5-HT2A and 5-HT2C receptors was assessed in in vitro radioligand binding experiments. In general, a low concentration of a radioligand with a high binding affinity for the receptor is incubated with a sample of a tissue preparation enriched in a particular receptor (1 to 5 mg tissue) in a buffered medium (0.2 to 5 ml). During the incubation, the radioligands bind to the receptor. When equilibrium of binding is reached, the receptor bound radioactivity is separated from the non-bound radioactivity, and the receptor bound activity is counted. The interaction of the test compounds with the receptors is assessed in competition binding experiments. Various concentrations of the test compound are added to the incubating mixture containing the tissue preparation and the radioligand. Binding of the radioligand will be inhibited by the test compound in proportion to its binding affinity and its concentration. The radioligand used for 5-HT2A binding affinity is ^3 H-ketanserin and the tissue used is the frontal cortex of the rat. […] The radioligand used for 5-HT2C binding affinity is ^3 H-mesulergine and the tissue used is the choroid plexus of the pig.

5-HT2A receptor = target: T2, 5-HT2A receptor (Rattus norvegicus, UniProt P14842); test: In vitro radioligand binding affinity for 5-HT2A receptor (3H-ketanserin, frontal cortex); conditions: test concentration of 10^-7 M, frontal cortex of the rat
T2 construct: the tissue used is the frontal cortex of the rat; from tissue; host or cells: rat frontal cortex
Experimental: as §1

[1] = system: mCPP (metachlorophenylpiperazine) induced effects; test: mCPP Test on Rats; type: in vivo, rat; conditions: pre-test time T of 1 hour, 1 mg/kg mCPP intravenously 15 minutes prior to the test, Open Field Test; for ED40: Rattus norvegicus, iv, read-out: active dose (dose at which 40% of the tested rats showed suppression of the mCPP induced effects, i.e. mCPP-antagonism)
Experimental: Rats were treated with the test compound at a dose varying between 0.0025 mg/kg and 40 mg/kg body weight at a pre-test time T of 1 hour, and with 1 mg/kg mCPP (metachlorophenylpiperazine), injected intravenously, 15 minutes prior to the test. After pre-test time T elapsed, treated rats were submitted to the "Open Field Test on Rats" as described in Drug. Dev. Res. 18, 119-144 (1989), but using an infra-red light source instead of a Kleverlux® (12 V/20 W) light source. […] Compounds number 1, 2, 4 and 9 were active at a test dose of 2.5 mg/kg or less.

[2] = dose of 300 mg/kg; cited from earlier work

T2 sequence (P14842 whole entry): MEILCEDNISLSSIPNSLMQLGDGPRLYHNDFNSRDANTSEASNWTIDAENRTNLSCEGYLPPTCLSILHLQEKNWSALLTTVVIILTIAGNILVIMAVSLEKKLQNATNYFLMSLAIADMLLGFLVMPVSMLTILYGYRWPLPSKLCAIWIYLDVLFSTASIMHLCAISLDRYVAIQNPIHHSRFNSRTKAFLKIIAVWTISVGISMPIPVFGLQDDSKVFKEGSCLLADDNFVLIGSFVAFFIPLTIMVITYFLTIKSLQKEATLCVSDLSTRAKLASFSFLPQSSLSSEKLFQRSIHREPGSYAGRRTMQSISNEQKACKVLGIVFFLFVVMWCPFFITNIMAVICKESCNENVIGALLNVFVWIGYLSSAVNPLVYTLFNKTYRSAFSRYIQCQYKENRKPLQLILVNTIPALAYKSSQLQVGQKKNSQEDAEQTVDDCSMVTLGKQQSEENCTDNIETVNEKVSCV

Row | Compound | inhibition at 0.1 µM (5-HT2C receptor) | inhibition at 0.1 µM (5-HT2A receptor) | ED40 [1] | other results
1 | Clc1cccc(N2CCN(CC3CC4c5ccccc5Cc5ccccc5C4O3)CC2)c1 (stereo not shown) [Compound 6] | > 40% | – | – | –
2 | CN1CCN(CC2CC3c4ccccc4Cc4ccccc4C3O2)CC1 (stereo not shown) [Compound 5] | > 40% | > 40% | – | –
3 | CN(C)CC1CC2c3ccccc3Oc3ccccc3C2O1 (racemic) [Compound 1, (±)-2,3,3a,12b-tetrahydro-N,N-dimethyldibenzo[bf]furo[2,3-d]oxepin-2-methanamine] | > 40% | – | ≤ 2.5 mg/kg | –
4 | CN(C)CC1CC2c3ccccc3Cc3ccccc3C2O1.Cl (racemic) [Compound 4, (±)-3,3a,8,12b-tetrahydro-N,N-dimethyl-2H-dibenzo[3,4:6,7]cyclohepta[1,2-b]furan-2-methanamine hydrochloride (1:1)] | > 40% | > 40% | ≤ 2.5 mg/kg | –
5 | CNCC1CC2c3ccccc3Cc3ccccc3C2O1.O=C(O)C(=O)O (racemic) [(±)-3,3a,8,12b-tetrahydro-N-methyl-2H-dibenzo[3,4:6,7]-cyclohepta[1,2-b]furan-2-methanamine oxalic acid] | – | – | – | antidepressant activity [2]: inactive
6 | c1ccc2c(c1)Cc1ccccc1C1OC(CN3CCOCC3)CC21 (stereo not shown) [Compound 9] | > 40% | > 40% | ≤ 2.5 mg/kg | –
7 | O=C(c1ccc(F)cc1)C1CCN(CC2CC3c4ccccc4Cc4ccccc4C3O2)CC1 (stereo not shown) [Compound 8] | > 40% | > 40% | – | –
8 | CN(C)CC1CC2c3ccccc3Oc3ccccc3C2O1 (stereo not shown) [Compound 2] | – | – | – | inhibition of the 5-HT2C receptor (5-HT2C receptor): less than 40%; active dose (dose at which 40% of the tested rats showed suppression of the mCPP induced effects, i.e. mCPP-antagonism) [1]: ≤ 2.5 mg/kg
9 | OCCN1CCN(CC2CC3c4ccccc4Cc4ccccc4C3O2)CC1 (racemic) [Compound 3, (±)-4-[(3,3a,8,12b-tetrahydro-2H-dibenzo[3,4:6,7]cyclohepta[1,2-b]furan-2-yl)methyl]-1-piperazineethanol dihydrochloride] | > 40% | > 40% | – | –
10 | c1ccc(C2CCN(CC3CC4c5ccccc5Cc5ccccc5C4O3)CC2)cc1 (stereo not shown) [Compound 7] | > 40% | – | – | –
